In BindingDB's records for doi:10.1016/S0960-894X(00)80270-X (1991):

Experiment: Compound was tested for inhibitory activity against fucosyltransferase

IC50: 40 mM
Compound: OC[C@@H]1NC[C@@H](O)[C@@H](O)[C@@H]1O[C@@H]1O[C@@H](CO)[C@H](O)[C@H](O)[C@@H]1O
